The results in this text go back to patent US6541501B2, “2-(aminomethyl)-tetrahydro-9-oxa-1,3-diaza-cyclopenta[a]-naphthalenyl derivatives with antipsychotic activity” (Wyeth, priority 2001, dated 2003).

One data set deals with dopamine D2 receptor. As to the kind of experiment: Affinity for the dopamine D2 receptor, [3H]-spiperidone binding in homogenized limbic brain tissue. As to conditions: ratio of IC50 D2 Spiper to IC50 D2 Quin. (LowAg/HighAg). Here is the method: High affinity for the dopamine D2 receptor was established by the standard experimental test procedure of Fields, et al., Brain Res., 136, […] (1977) and Yamamura et al., ed., Neurotransmitter Receptor Binding, Chapter 9, page 171, Raven Press, N.Y. (1978) wherein homogenized limbic brain tissue is incubated with [^3H]-spiperidone at various concentrations of test compound, filtered washed, and shaken with Hydrofluor scintillation cocktail (National Diagnostics) and counted in a Packard 460 CD scintillation counter.

Data set [1] concerns the target T1, dopamine autoreceptor (D2 Quin.) (Rattus norvegicus, UniProt P61169).
T1 construct: from tissue; host or cells: rat striatal brain tissue homogenate
As to the kind of experiment: Affinity for the dopamine autoreceptor, [3H]-quinpirole binding in homogenized rat striatal brain tissue. The method, then: Affinity for the dopamine autoreceptor was established by a modification of the standard experimental test procedure of Seemen and Schaus, European Journal of Pharmacology 203: 105-109, 1991, wherein homogenized rat striatal brain tissue is incubated with [^3H]-quinpirole (Quin.) at various concentrations of test compound, filtered, washed and counted in a Betaplate scintillation counter.

Molecules are shown by their SMILES. Counter-ions that a name gives are not always drawn.

T1 sequence (P61169 whole entry): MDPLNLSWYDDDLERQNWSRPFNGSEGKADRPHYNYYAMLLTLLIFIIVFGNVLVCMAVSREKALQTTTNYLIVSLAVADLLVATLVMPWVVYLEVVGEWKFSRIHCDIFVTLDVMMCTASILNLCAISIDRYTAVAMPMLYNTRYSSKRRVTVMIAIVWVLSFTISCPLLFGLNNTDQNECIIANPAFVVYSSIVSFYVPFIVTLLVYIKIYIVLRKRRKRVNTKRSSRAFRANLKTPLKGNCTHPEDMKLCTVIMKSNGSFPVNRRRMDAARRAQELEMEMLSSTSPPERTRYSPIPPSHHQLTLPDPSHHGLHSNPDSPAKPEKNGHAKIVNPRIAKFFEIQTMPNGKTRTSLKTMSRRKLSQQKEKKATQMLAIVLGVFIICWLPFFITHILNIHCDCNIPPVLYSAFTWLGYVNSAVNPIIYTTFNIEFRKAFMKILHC

In general, IC50 refers to the midpoint of a concentration-inhibition curve. Higher therefore signals lower potency. Consider `O=c1[nH]c2ccc3c(c2[nH]1)OC(CNCc1ccccc1)CC3` (stereo not drawn) [Example 1, 8-(Benzylamino-methyl)-3,5,7,8-tetrahydro-9-oxa-1,3-diaza-cyclopenta[a]naphthalen-2-one], for which the Ratio in the data set on dopamine D2 receptor is 309. Also, in data set [1], the IC50 was 0.29 nM.

By melting point is commonly meant the temperature of the solid-liquid transition. In turn, `O=c1[nH]c2c([nH]1)=C1OC(CNCc3ccccc3)CC=C1CC=2` (stereo not drawn) (as salt: oxalate) [Example 1, 8-(Benzylamino-methyl)-3,5,7,8-tetrahydro-9-oxa-1,3-diaza-cyclopenta[a]naphthalen-2-one] showed a melting point of 229 °C.
